According to PMC9653409, “Generative deep learning enables the discovery of a potent and selective RIPK1 inhibitor” (Nature Communications, 2022):

Assays:
Experiment in all cases: Kinase inhibitory activity profiling of RI-962@10 µM (406 kinases, Eurofins)
Format in all cases: biochemical
[1] = biological target: panel of human kinases (kinase named in endpoint) (Homo sapiens, UniProt Q8TDR2); conditions: 10 µM; read-out: Activity (%), CLIK1(h)
How it was run: (§1)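 Radiometric filter-binding kinase assays: enzyme preincubated 15 min with compound in 8 mM MOPS pH 7.0, 0.2 mM EDTA, 250 μM peptide substrate, 10 mM magnesium acetate, 10 μM [γ-33P]-ATP. Reaction started with Mg/ATP, run 40 min at room temperature, stopped with phosphoric acid; 33P incorporation read by scintillation counting. Other kinases by similar protocols.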

[2] = biological target: panel of human kinases (kinase named in endpoint) (Homo sapiens, UniProt P36888); conditions: 10 µM; read-out: Activity (%), Flt3(h)
How it was run: as §1

[3] = biological target: panel of human kinases (kinase named in endpoint) (Homo sapiens, UniProt P45984); conditions: 10 µM; read-out: Activity (%), JNK2α2(h)
How it was run: as §1

[4] = biological target: panel of human kinases (kinase named in endpoint) (Homo sapiens, UniProt P42336, E545K); conditions: 10 µM; read-out: Activity (%), PI3(p110a(E545K)/p85a)
How it was run: as §1

[5] = biological target: panel of human kinases (kinase named in endpoint) (Homo sapiens, UniProt P78362); conditions: 10 µM; read-out: Activity (%), SRPK2(h)
How it was run: as §1

[6] = biological target: panel of human kinases (kinase named in endpoint) (Homo sapiens, UniProt Q07002); conditions: 10 µM; read-out: Activity (%), CDK18/cyclinY(h)
How it was run: as §1

[7] = biological target: panel of human kinases (kinase named in endpoint) (Homo sapiens, UniProt P49760); conditions: 10 µM; read-out: Activity (%), CLK2(h)
How it was run: as §1

[8] = biological target: panel of human kinases (kinase named in endpoint) (Homo sapiens, UniProt Q9Y463); conditions: 10 µM; read-out: Activity (%), DYRK1B(h)
How it was run: as §1

[9] = biological target: panel of human kinases (kinase named in endpoint) (Homo sapiens, UniProt P35968); conditions: 10 µM; read-out: Activity (%), KDR(h)
How it was run: as §1

[10] = biological target: panel of human kinases (kinase named in endpoint) (Homo sapiens, UniProt Q9Y243); conditions: 10 µM; read-out: Activity (%), PKBγ(h)
How it was run: as §1

[11] = biological target: panel of human kinases (kinase named in endpoint) (Homo sapiens, UniProt P05771); conditions: 10 µM; read-out: Activity (%), PKCβI(h)
How it was run: as §1

[12] = biological target: panel of human kinases (kinase named in endpoint) (Homo sapiens, UniProt P51956); conditions: 10 µM; read-out: Activity (%), NEK3(h)
How it was run: as §1

[13] = biological target: panel of human kinases (kinase named in endpoint) (Homo sapiens, UniProt P54756); conditions: 10 µM; read-out: Activity (%), EphA5(h)
How it was run: as §1

[14] = biological target: panel of human kinases (kinase named in endpoint) (Homo sapiens, UniProt Q9Y6E0); conditions: 10 µM; read-out: Activity (%), MST3(h)
How it was run: as §1

[15] = biological target: panel of human kinases (kinase named in endpoint) (Homo sapiens, UniProt Q8WU08); conditions: 10 µM; read-out: Activity (%), STK32A(h)
How it was run: as §1

[16] = biological target: panel of human kinases (kinase named in endpoint) (Homo sapiens, UniProt P51617); conditions: 10 µM; read-out: Activity (%), IRAK1(h)
How it was run: as §1

[17] = biological target: panel of human kinases (kinase named in endpoint) (Homo sapiens, UniProt Q9UK32); conditions: 10 µM; read-out: Activity (%), Rsk4(h)
How it was run: as §1

[18] = biological target: panel of human kinases (kinase named in endpoint) (Homo sapiens, UniProt Q16644); conditions: 10 µM; read-out: Activity (%), MAPKAP-K3(h)
How it was run: as §1

[19] = biological target: panel of human kinases (kinase named in endpoint) (Homo sapiens, UniProt Q00536); conditions: 10 µM; read-out: Activity (%), CDK16/cyclinY(h)
How it was run: as §1

[20] = biological target: panel of human kinases (kinase named in endpoint) (Homo sapiens, UniProt P29597); conditions: 10 µM; read-out: Activity (%), TYK2(h)
How it was run: as §1

[21] = biological target: panel of human kinases (kinase named in endpoint) (Homo sapiens, UniProt Q9Y2U5); conditions: 10 µM; read-out: Activity (%), MEKK2(h)
How it was run: as §1

[22] = biological target: panel of human kinases (kinase named in endpoint) (Homo sapiens, UniProt Q16566); conditions: 10 µM; read-out: Activity (%), CaMKIV(h)
How it was run: as §1

[23] = biological target: panel of human kinases (kinase named in endpoint) (Homo sapiens, UniProt P22694); conditions: 10 µM; read-out: Activity (%), PKAcβ(h)
How it was run: as §1

[24] = biological target: panel of human kinases (kinase named in endpoint) (Homo sapiens, UniProt Q8IZX4); conditions: 10 µM; read-out: Activity (%), TAF1L(h)
How it was run: as §1

[25] = biological target: panel of human kinases (kinase named in endpoint) (Homo sapiens, UniProt Q8IYT8); conditions: 10 µM; read-out: Activity (%), ULK2(h)
How it was run: as §1

[26] = biological target: panel of human kinases (kinase named in endpoint) (Homo sapiens, UniProt Q9Y3S1); conditions: 10 µM; read-out: Activity (%), WNK2(h)
How it was run: as §1

Chain of panel of human kinases (kinase named in endpoint) (Homo sapiens, UniProt Q16644) (Q16644 whole entry): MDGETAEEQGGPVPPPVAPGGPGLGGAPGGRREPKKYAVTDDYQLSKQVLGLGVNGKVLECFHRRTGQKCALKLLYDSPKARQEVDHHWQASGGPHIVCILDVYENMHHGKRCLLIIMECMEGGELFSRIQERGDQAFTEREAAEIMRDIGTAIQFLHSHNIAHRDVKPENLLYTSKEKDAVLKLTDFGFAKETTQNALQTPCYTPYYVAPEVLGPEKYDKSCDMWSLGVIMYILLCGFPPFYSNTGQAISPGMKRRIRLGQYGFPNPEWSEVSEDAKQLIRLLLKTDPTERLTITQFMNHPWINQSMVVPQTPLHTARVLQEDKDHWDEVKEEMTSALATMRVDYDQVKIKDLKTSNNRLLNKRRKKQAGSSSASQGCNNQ
Chain of panel of human kinases (kinase named in endpoint) (Homo sapiens, UniProt Q9UK32) (Q9UK32 whole entry): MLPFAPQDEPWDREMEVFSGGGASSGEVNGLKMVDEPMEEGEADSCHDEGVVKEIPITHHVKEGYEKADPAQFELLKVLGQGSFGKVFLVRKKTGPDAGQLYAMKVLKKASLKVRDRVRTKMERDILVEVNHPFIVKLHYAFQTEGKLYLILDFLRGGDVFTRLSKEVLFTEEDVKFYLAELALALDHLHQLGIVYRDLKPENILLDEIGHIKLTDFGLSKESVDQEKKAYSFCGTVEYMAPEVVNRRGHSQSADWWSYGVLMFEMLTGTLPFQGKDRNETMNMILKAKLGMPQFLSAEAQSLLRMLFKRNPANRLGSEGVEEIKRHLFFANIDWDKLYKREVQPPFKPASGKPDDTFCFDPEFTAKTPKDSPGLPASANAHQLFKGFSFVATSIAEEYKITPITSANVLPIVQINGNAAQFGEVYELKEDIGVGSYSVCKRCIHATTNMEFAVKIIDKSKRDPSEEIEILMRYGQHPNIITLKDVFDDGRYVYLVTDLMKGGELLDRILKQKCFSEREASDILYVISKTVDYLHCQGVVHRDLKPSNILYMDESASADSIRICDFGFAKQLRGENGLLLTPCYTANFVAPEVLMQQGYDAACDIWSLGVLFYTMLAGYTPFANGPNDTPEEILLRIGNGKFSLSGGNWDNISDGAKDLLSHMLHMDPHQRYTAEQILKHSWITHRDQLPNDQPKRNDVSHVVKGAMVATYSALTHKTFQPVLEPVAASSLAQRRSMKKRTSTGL
Chain of panel of human kinases (kinase named in endpoint) (Homo sapiens, UniProt Q8IZX4) (Q8IZX4 whole entry): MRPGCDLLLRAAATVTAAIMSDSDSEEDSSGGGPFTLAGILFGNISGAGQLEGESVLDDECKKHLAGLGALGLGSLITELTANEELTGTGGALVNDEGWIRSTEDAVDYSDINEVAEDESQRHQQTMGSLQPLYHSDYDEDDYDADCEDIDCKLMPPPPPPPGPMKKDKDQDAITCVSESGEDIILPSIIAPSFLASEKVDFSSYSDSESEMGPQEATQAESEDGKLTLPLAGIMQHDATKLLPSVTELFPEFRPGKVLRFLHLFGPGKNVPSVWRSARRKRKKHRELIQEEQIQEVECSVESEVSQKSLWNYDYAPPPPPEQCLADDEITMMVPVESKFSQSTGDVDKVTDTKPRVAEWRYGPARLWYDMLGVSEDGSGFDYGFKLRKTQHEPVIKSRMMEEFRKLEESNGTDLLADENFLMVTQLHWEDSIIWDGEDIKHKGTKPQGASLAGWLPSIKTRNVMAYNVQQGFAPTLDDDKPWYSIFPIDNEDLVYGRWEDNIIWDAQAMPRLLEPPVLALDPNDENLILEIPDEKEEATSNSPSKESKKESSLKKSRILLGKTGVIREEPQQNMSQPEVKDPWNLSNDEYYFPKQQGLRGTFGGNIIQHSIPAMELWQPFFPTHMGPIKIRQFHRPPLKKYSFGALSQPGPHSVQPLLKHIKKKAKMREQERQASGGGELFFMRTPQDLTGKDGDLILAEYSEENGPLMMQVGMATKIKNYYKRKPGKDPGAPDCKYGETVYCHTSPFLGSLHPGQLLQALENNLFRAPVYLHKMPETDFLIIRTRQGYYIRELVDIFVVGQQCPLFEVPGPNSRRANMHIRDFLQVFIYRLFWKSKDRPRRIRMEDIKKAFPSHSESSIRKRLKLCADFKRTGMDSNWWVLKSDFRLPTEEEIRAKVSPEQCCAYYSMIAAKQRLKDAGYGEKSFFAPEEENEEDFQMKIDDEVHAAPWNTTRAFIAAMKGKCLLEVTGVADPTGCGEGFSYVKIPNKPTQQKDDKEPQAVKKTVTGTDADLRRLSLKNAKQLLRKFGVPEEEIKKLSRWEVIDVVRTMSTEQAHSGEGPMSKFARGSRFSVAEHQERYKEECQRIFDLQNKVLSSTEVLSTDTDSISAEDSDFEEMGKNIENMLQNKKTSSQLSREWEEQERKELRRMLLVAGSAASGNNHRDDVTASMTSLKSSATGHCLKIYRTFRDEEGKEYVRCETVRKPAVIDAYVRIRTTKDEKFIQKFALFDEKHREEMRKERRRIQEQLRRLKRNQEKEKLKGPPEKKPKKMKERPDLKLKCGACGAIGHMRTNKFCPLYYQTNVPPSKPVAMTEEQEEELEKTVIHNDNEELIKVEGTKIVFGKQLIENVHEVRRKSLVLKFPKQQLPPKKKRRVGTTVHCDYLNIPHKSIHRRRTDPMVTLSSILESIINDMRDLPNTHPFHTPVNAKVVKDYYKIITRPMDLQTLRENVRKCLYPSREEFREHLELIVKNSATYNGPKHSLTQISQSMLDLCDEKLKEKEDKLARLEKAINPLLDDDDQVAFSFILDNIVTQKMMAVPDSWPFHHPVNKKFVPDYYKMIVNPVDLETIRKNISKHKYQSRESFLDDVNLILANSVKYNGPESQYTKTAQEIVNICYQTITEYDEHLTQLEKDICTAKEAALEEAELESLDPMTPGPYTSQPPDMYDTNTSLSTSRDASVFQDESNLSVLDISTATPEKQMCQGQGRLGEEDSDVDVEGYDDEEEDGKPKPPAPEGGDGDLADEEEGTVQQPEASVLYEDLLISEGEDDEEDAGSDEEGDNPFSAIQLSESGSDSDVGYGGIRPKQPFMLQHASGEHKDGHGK
Chain of panel of human kinases (kinase named in endpoint) (Homo sapiens, UniProt P42336, E545K) (P42336 whole entry E545K): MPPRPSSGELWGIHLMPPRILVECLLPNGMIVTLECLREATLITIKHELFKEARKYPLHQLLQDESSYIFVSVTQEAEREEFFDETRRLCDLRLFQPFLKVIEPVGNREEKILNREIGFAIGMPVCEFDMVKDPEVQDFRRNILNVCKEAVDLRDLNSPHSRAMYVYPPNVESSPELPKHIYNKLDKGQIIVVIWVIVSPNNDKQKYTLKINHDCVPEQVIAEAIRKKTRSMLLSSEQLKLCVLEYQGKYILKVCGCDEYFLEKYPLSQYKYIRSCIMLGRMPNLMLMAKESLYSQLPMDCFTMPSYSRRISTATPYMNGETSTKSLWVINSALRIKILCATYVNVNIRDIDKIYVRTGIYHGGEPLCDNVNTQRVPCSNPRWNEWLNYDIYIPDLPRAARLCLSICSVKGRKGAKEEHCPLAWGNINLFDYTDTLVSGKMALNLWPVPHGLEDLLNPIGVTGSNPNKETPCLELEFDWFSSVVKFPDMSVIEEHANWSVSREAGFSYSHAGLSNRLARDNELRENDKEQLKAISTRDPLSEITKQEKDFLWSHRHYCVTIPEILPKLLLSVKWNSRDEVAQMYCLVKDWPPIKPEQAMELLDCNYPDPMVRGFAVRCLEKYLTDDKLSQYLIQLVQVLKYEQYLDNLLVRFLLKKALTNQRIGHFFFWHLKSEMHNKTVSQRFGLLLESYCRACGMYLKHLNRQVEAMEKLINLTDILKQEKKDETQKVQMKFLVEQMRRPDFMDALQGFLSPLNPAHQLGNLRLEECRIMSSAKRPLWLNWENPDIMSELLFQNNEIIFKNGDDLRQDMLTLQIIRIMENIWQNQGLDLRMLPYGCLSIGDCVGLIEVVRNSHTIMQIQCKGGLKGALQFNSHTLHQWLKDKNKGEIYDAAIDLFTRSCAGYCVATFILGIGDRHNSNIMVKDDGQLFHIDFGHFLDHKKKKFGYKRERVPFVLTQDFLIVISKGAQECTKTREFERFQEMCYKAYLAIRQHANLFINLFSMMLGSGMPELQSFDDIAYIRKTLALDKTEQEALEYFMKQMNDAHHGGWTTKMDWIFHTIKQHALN
Chain of panel of human kinases (kinase named in endpoint) (Homo sapiens, UniProt P78362) (P78362 whole entry): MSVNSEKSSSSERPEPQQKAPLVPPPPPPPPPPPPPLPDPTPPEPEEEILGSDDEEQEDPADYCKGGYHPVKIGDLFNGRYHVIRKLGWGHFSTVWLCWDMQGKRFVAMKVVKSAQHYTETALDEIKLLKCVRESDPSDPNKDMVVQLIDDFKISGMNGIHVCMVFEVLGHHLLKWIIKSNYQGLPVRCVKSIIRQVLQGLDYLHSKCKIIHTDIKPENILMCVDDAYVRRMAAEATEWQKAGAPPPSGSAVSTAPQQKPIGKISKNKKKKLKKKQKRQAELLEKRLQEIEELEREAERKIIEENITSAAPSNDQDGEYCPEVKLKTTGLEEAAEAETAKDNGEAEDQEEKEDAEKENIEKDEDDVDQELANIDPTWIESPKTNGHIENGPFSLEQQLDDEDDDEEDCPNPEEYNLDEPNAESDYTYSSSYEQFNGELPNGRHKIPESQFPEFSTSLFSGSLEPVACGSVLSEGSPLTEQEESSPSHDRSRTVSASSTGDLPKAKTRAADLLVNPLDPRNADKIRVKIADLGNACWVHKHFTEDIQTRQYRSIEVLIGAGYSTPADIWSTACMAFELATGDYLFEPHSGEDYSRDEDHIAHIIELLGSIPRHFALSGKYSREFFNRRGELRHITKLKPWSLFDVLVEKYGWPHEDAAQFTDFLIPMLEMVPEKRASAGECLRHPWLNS
Chain of panel of human kinases (kinase named in endpoint) (Homo sapiens, UniProt Q8WU08) (Q8WU08 whole entry): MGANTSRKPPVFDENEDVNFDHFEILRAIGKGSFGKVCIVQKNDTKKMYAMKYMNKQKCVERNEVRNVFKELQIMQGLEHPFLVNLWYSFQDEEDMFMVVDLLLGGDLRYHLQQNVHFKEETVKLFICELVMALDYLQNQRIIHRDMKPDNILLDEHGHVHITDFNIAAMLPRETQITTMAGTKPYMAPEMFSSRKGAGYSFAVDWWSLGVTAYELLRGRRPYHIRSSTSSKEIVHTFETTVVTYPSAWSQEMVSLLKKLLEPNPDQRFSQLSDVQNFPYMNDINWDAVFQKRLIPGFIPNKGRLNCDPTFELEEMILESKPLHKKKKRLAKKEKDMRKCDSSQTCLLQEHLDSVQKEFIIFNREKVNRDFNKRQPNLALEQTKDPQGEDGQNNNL

**Q.** With CC(C)C(=O)Nc1nc2cc(-c3ccc4c(c3)c(C(=O)NC(C)c3ccccc3)cn4C)ccn2n1 (centres unmarked) [RI-962] as the compound, how does the activity at 10 µM [1] read?
**A.** Its activity at 10 µM is 132%.

**Q.** What about the activity at 10 µM [2] of the same compound?
**A.** Its activity at 10 µM is 87%.

**Q.** What about the activity at 10 µM [3] of the same compound?
**A.** The activity at 10 µM was 71%.

**Q.** And the activity at 10 µM [4]?
**A.** The activity at 10 µM was 96%.

**Q.** And the activity at 10 µM [5]?
**A.** Its activity at 10 µM is 100%.

**Q.** And the activity at 10 µM [6]?
**A.** The activity at 10 µM was 119%.

**Q.** What about the activity at 10 µM [7] of the same compound?
**A.** The activity at 10 µM was 94%.

**Q.** And the activity at 10 µM [8]?
**A.** The activity at 10 µM was 100%.

**Q.** What about the activity at 10 µM [9] of the same compound?
**A.** The activity at 10 µM was 92%.

**Q.** What about the activity at 10 µM [10] of the same compound?
**A.** Its activity at 10 µM is 95%.

**Q.** What about the activity at 10 µM [11] of the same compound?
**A.** Its activity at 10 µM is 120%.

**Q.** And the activity at 10 µM [12]?
**A.** Its activity at 10 µM is 103%.

**Q.** What about the activity at 10 µM [13] of the same compound?
**A.** The activity at 10 µM was 93%.

**Q.** What about the activity at 10 µM [14] of the same compound?
**A.** The activity at 10 µM was 149%.

**Q.** What about the activity at 10 µM [15] of the same compound?
**A.** The activity at 10 µM was 113%.

**Q.** What about the activity at 10 µM [16] of the same compound?
**A.** The activity at 10 µM was 103%.

**Q.** And the activity at 10 µM [17]?
**A.** Its activity at 10 µM is 61%.

**Q.** What about the activity at 10 µM [18] of the same compound?
**A.** Its activity at 10 µM is 98%.

**Q.** And the activity at 10 µM [19]?
**A.** Its activity at 10 µM is 121%.

**Q.** And the activity at 10 µM [20]?
**A.** The activity at 10 µM was 113%.

**Q.** What about the activity at 10 µM [21] of the same compound?
**A.** The activity at 10 µM was 98%.

**Q.** What about the activity at 10 µM [22] of the same compound?
**A.** Its activity at 10 µM is 77%.

**Q.** What about the activity at 10 µM [23] of the same compound?
**A.** The activity at 10 µM was 117%.

**Q.** And the activity at 10 µM [24]?
**A.** The activity at 10 µM was 89%.

**Q.** What about the activity at 10 µM [25] of the same compound?
**A.** Its activity at 10 µM is 89%.

**Q.** And the activity at 10 µM [26]?
**A.** Its activity at 10 µM is 79%.
